For this test, the system named is ACE. Kind of test: ACE inhibition (IC50) of synthesized peptides. Type of test: biochemical. The method, then: The ACE inhibition activity was assayed according to the method 15 of Matsui et al. (Matsui, T. et al. (1992) Biosci. Biotech. Biochem. 56: 517-518) with the modifications described below.
For each sample 75 μl 3 mM hippuryl histidine leucine (Hip-His-Leu, Sigma chemicals Co.; the chemical was dissolved in 250 mM Borate containing 200 mM NaCl, pH 8.3); 20 μl 0.1 U/ml ACE (obtained at Sigma) or H2 O, and 25 μl sample or H2O were mixed (see Table 1). The mixtures were incubated at 37° C. and stopped after 30 min by adding 125 μl 0.5 M HCl. Subsequently, 225 μl bicine/NaOH solution (1 M NaOH : 0.25 M bicine (4:6)) was added, followed by […] 0.1 M TNBS (2,4,6-Trinitrobenzenesulfonic acid, Fluka, Switzerland; in 0.1 M Na2HPO4). After incubation for 20 min. at 37° C., 4 ml 4 mM Na2SO3 in 0.2 M NaH2PO4 was added and the absorbance at 416 nm was measured with UV/Vis spectrophotometer (Shimadzu UV-1601 with a CPS controller, Netherlands). The amount of ACE inhibition (ACEI) activity was calculated as a percentage of inhibition compared with the conversion rate of ACE in the absence of an inhibitor: ACEI (%) (((C1-C2)-(S1-S2))/(C1-C2))*100 (1) wherein • C1=Absorbance without ACE inhibitory component (=max. ACE activity) [AU]. • C2=Absorbance without ACE inhibitory component and without ACE (background) [AU]. • S1=Absorbance in the presence of ACE and the ACE inhibitory component [AU]. • S2=Absorbance in the presence of the ACE inhibitory component, but without ACE [AU].
Turning to Leu-Pro-Val [LPV], the IC50 was above 1000 µM. As for Leu-Pro [LP], the figure is above 1000 µM; as for Val-Leu-Pro [VLP], 120 µM; as for “Leu-Pro-Val-Pro (LPVP; printed: Leu-Pro-Val-Pro)”, 250 µM. As for KVLPVPQ [Lys-Val-Leu-Pro-Val-Pro-Gln], the figure is 1000 µM; as for KVLPVP [Lys-Val-Leu-Pro-Val-Pro], 5 µM.

By IC50 is commonly meant the concentration at which inhibition is half-maximal.

Values taken from patent US20050008751A1, “Fermented milk product” (Unilever Bestfoods, North America, priority 2001, published 2005).
